The CheMixHub ionic liquid set

Assay: xn = mol fraction of the nth substance listed

CCC[n+]1ccn(C)c1.COS(=O)(=O)[O-] + O
viscosity [mPa·s], 101 kPa
Conditions	298.15 K	308.15 K	318.15 K	328.15 K
x1 = 0.000281	0.799	0.699	0.62	0.566
x1 = 0.0007725	0.805	0.709	0.638	0.57
x1 = 0.0009344	0.814	0.717	0.642	0.575
x1 = 0.001368	0.819	0.727	0.647	0.58
x1 = 0.001628	0.813	0.735	0.66	0.588
x1 = 0.002412	0.829	0.758	0.658	0.602
x1 = 0.004829	0.838	0.796	0.702	0.647
x1 = 0.007746	0.886	0.847	0.757	0.701
x1 = 0.009565	0.931	0.888	0.81	0.736
x1 = 0.01237	0.999	0.93	0.865	0.79
x1 = 0.01639	1.113	1.021	0.963	0.878
x1 = 0.01912	1.182	1.072	1.017	0.953
x2 = 0.9709	1.48	1.268	1.247	1.122
x2 = 0.9746	1.387	1.205	1.167	1.054

O=C([O-])C1=NN(c2ccc(S(=O)(=O)[O-])cc2)C(=O)C1N=Nc1ccc(S(=O)(=O)[O-])cc1.[Na+].[Na+].[Na+] (stereo not given) + C[N+](C)(C)Cc1ccccc1.[Cl-] + O
electrical conductivity [S/m], 101.3 kPa, frequency 0.001 MHz
Conditions	298.15 K	308.15 K	318.15 K
x1 = 0.0001802, x2 = 1.802e-05	0.132	0.158	0.197
x1 = 0.0001803, x2 = 5.405e-05	0.142	0.177	0.213
x1 = 0.0001803, x2 = 9.008e-05	0.168	0.187	0.228
x1 = 0.0004504, x2 = 1.801e-05	0.231	0.276	0.355
x1 = 0.0004505, x2 = 5.403e-05	0.254	0.317	0.388
x1 = 0.0004507, x2 = 9.005e-05	0.303	0.331	0.413
x1 = 0.0007204, x2 = 1.801e-05	0.331	0.392	0.498
x1 = 0.0007206, x2 = 5.402e-05	0.359	0.447	0.535
x1 = 0.0007209, x2 = 9.003e-05	0.419	0.477	0.558
x1 = 0.0009903, x2 = 1.8e-05	0.421	0.512	0.641
x1 = 0.0009906, x2 = 5.4e-05	0.463	0.588	0.677
x1 = 0.0009909, x2 = 9e-05	0.57	0.614	0.723
x1 = 0.00126, x2 = 1.8e-05	0.519	0.638	0.777
x1 = 0.00126, x2 = 5.399e-05	0.583	0.716	0.826
x1 = 0.001261, x2 = 8.998e-05	0.684	0.739	0.863
x1 = 0.00153, x2 = 1.799e-05	0.641	0.753	0.915
x1 = 0.00153, x2 = 5.397e-05	0.705	0.841	0.972
x1 = 0.001531, x2 = 8.995e-05	0.812	0.88	1.01

viscosity [mPa·s], 101.3 kPa
Conditions	298.15 K	308.15 K	318.15 K
x1 = 0.0001802, x2 = 1.802e-05	0.905	0.747	0.629
x1 = 0.0001803, x2 = 5.405e-05	0.923	0.769	0.646
x1 = 0.0001803, x2 = 9.008e-05	0.941	0.789	0.666
x1 = 0.0004504, x2 = 1.801e-05	0.923	0.764	0.644
x1 = 0.0004505, x2 = 5.403e-05	0.944	0.788	0.664
x1 = 0.0004507, x2 = 9.005e-05	0.962	0.809	0.685
x1 = 0.0007204, x2 = 1.801e-05	0.938	0.778	0.658
x1 = 0.0007206, x2 = 5.402e-05	0.962	0.803	0.679
x1 = 0.0007209, x2 = 9.003e-05	0.983	0.826	0.701
x1 = 0.0009903, x2 = 1.8e-05	0.952	0.791	0.67
x1 = 0.0009906, x2 = 5.4e-05	0.977	0.818	0.693
x1 = 0.0009909, x2 = 9e-05	1	0.842	0.717
x1 = 0.00126, x2 = 1.8e-05	0.964	0.803	0.681
x1 = 0.00126, x2 = 5.399e-05	0.992	0.832	0.707
x1 = 0.001261, x2 = 8.998e-05	1.015	0.858	0.731
x1 = 0.00153, x2 = 1.799e-05	0.977	0.815	0.693
x1 = 0.00153, x2 = 5.397e-05	1.007	0.847	0.72
x1 = 0.001531, x2 = 8.995e-05	1.032	0.873	0.746

C[N+](C)(C)Cc1ccccc1.[Cl-] + CCC(O)CO
101.13 kPa, x1 = 0.5
Conditions	electrical conductivity [S/m]	viscosity [mPa·s]
308 K	–	64
323 K	0.53	–

CC[n+]1ccn(C)c1.O=S(=O)([N-]S(=O)(=O)C(F)(F)F)C(F)(F)F + O=S(=O)([O-])C(F)(F)F.[Li+]
101 kPa, x1 = 1
Conditions	electrical conductivity [S/m]
288.15 K	0.611
298.15 K	0.883
333.15 K	2.18

CC[n+]1ccn(C)c1.F[B-](F)(F)F + CN(C)C=O
101 kPa
Conditions	viscosity [mPa·s]
303.15 K, x2 = 0.2016	16.52
313.15 K, x2 = 0	20.41
313.15 K, x2 = 0.3987	7.35
313.15 K, x2 = 0.5005	5.397
313.15 K, x2 = 0.7997	1.806
323.15 K, x2 = 0	15.35
323.15 K, x2 = 0.2994	7.73
323.15 K, x2 = 0.5005	4.475
323.15 K, x2 = 0.6004	3.226
323.15 K, x2 = 0.8999	1.01

CC[n+]1ccn(C)c1.F[B-](F)(F)F + C1COCCO1
100 kPa
Conditions	viscosity [mPa·s]
293.15 K, x2 = 0	50.5
298.15 K, x2 = 0.2149	26.8
303.15 K, x2 = 0	34.5
303.15 K, x2 = 0.1664	25.1
303.15 K, x2 = 0.2149	22.7
303.15 K, x2 = 0.5453	9.3
313.15 K, x2 = 0.2149	16.9
323.15 K, x2 = 0	18.6
323.15 K, x2 = 0.5077	6.59
323.15 K, x2 = 0.5453	5.93
333.15 K, x2 = 0.3591	7.8
333.15 K, x2 = 0.5077	5.42
353.15 K, x2 = 0.5453	3.52

CC(=O)[O-].CCC[N+]1(C)CCCC1 + CC#N
298 K, 101 kPa
Conditions	electrical conductivity [S/m]
x2 = 0.75	3.18
x2 = 0.775	3.51
x2 = 0.799	3.72
x2 = 0.825	3.86
x2 = 0.849	3.9
x2 = 0.875	3.92
x2 = 0.9	3.85
x2 = 0.911	3.75
x2 = 0.921	3.63
x2 = 0.94	3.35

CC[n+]1ccn(C)c1.O=S(=O)([N-]S(=O)(=O)C(F)(F)F)C(F)(F)F + O=C1OCCO1
100 kPa, x2 = 0
Conditions	viscosity [mPa·s]
383.15 K	4.2
393.15 K	3.7

CO + CC[n+]1ccn(C)c1.N#C[S-]
100 kPa, x2 = 0
Conditions	viscosity [mPa·s]
298.15 K	0.54
318.15 K	0.43

CC(=O)Nc1ccc(O)cc1 + O + CCCC[n+]1ccn(C)c1.[Br-]
101 kPa, frequency 0.0003 MHz
Conditions	electrical conductivity [S/m]
293.15 K, x1 = 0.0005475, x3 = 1.14e-05	0.0067
293.15 K, x1 = 0.0005475, x3 = 1.628e-05	0.0094
293.15 K, x1 = 0.001082, x3 = 4.9e-06	0.003
298.15 K, x1 = 0.0005475, x3 = 9.05e-06	0.0056
298.15 K, x1 = 0.0005475, x3 = 1.447e-05	0.0085
298.15 K, x1 = 0.001082, x3 = 5.63e-06	0.0034
298.15 K, x1 = 0.001082, x3 = 1.162e-05	0.0067
298.15 K, x1 = 0.001082, x3 = 1.635e-05	0.0092
303.15 K, x1 = 0.0005475, x3 = 5.43e-06	0.0036
303.15 K, x1 = 0.0005475, x3 = 1.158e-05	0.0071
303.15 K, x1 = 0.001082, x3 = 5.09e-06	0.0032
303.15 K, x1 = 0.001082, x3 = 1.162e-05	0.0067
303.15 K, x1 = 0.001082, x3 = 1.617e-05	0.0091
308.15 K, x1 = 0.0005475, x3 = 2.71e-06	0.0025
308.15 K, x1 = 0.0005475, x3 = 9.41e-06	0.0073
308.15 K, x1 = 0.001082, x3 = 5.63e-06	0.0038
308.15 K, x1 = 0.001082, x3 = 1.199e-05	0.0075

CO + C[N+](C)(C)CCO.NCC(=O)[O-]
100 kPa, x2 = 0
Conditions	viscosity [mPa·s]
298.15 K	0.58
303.15 K	0.55
308.15 K	0.51
313.15 K	0.47
318.15 K	0.44
323.15 K	0.41

CCCCCC[P+](CCCC)(CCCC)CCCC.F[B-](F)(F)F + CC#N
viscosity [mPa·s], 100 kPa
Conditions	x1 = 0.004011	x1 = 0.008155	x1 = 0.01203	x1 = 0.01615	x1 = 0.01996	x1 = 0.02404	x1 = 0.02792	x1 = 0.03151	x1 = 0.03559	x1 = 0.03974
293.15 K	0.374	0.398	0.419	0.446	0.47	0.499	0.526	0.554	0.585	0.621
298.15 K	0.357	0.379	0.399	0.423	0.446	0.472	0.497	0.523	0.551	0.585
303.15 K	0.341	0.361	0.38	0.403	0.423	0.448	0.47	0.495	0.521	0.552
308.15 K	0.326	0.345	0.362	0.383	0.403	0.425	0.446	0.469	0.493	0.522
313.15 K	0.313	0.331	0.347	0.366	0.384	0.406	0.425	0.446	0.468	0.495
318.15 K	0.3	0.317	0.332	0.35	0.367	0.387	0.405	0.424	0.445	0.47

CCCCCCCC[N+](CCCCCCCC)(CCCCCCCC)CCCCCCCC.[Br-] + CCCCCCCC(=O)O
Conditions	electrical conductivity [S/m]
298.1 K, 100 kPa, x1 = 0.333	4.5e-06

CO + COP(=O)([O-])OC.Cn1cc[n+](C)c1
101 kPa, x1 = 1
Conditions	viscosity [mPa·s]
303.15 K	0.521
318.15 K	0.44

CC[n+]1ccn(C)c1.O=S(=O)([N-]S(=O)(=O)C(F)(F)F)C(F)(F)F + O=C1CCCO1
100 kPa, frequency 0.005 MHz
Conditions	electrical conductivity [S/m]
293.15 K, x2 = 0	0.774
293.15 K, x2 = 0.3005	1.17
293.15 K, x2 = 0.5101	1.47
293.15 K, x2 = 0.9005	1.58
293.15 K, x2 = 0.95	1.13
298.15 K, x2 = 0.2073	1.19
303.15 K, x2 = 0	1.06
303.15 K, x2 = 0.2073	1.34
303.15 K, x2 = 0.3005	1.47
303.15 K, x2 = 0.5101	1.79
303.15 K, x2 = 0.7	2.07
303.15 K, x2 = 0.7994	2.09
303.15 K, x2 = 0.8498	2.06
303.15 K, x2 = 0.95	1.32
308.15 K, x2 = 0	1.2
308.15 K, x2 = 0.7994	2.25
313.15 K, x2 = 0	1.35
313.15 K, x2 = 0.3005	1.77
318.15 K, x2 = 0.2073	1.82
318.15 K, x2 = 0.5101	2.31
318.15 K, x2 = 0.95	1.59
323.15 K, x2 = 0.2073	2.04
323.15 K, x2 = 0.6	2.69
